{
  "source": "patent EP0091185A2",
  "about": "“Berbane derivatives” (CHINOIN Gyogyszer és Vegyészeti Termékek Gyára RT., priority 1982, dated 1983)",
  "key": {"CFLP strain female mice": {"system": "CFLP strain female mice", "conditions": "mouse, in vivo"}, "CFY strain male rats": {"system": "CFY strain male rats", "assay": "Systolic blood pressure of non-anaesthetized rats, measured indirectly on the tail with a cuff", "assay_type": "in vivo", "conditions": "for Blood pressure change related to the starting (control) value, 3rd hour / Blood pressure change related to the starting (control) value, 6th hour / Blood pressure change related to the starting (control) value, 12th hour / Blood pressure change related to the starting (control) value, 18th hour / Blood pressure change related to the starting (control) value, 24th hour / Blood pressure change related to the starting (control) value, 48th hour: n 5; for dose achieving hypotension of approximately the same intensity and duration: comparison of reserpine and the racemic compound, i.p.", "method": "The tests were carried. out on CFY strain male rats weighing 250-300 g. The systolic blood pressure was measured indirectly on the tails of the animals pressed down with the aid. of a cuff. […] The systolic blood pressure was determined by observing simultaneously the manometer and the out-signal."}, "[1]": {"system": "male rats weighing 300 and having hypertension", "assay": "Systolic blood pressure decrease by the optically active enantiomers in hypertensive rats", "assay_type": "in vivo", "conditions": "intraperitoneal 20 mg/kg, sixth hour following administration (maximum of the effect)", "method": "The tests were carried. out on CFY strain male rats weighing 250-300 g. The systolic blood pressure was measured indirectly on the tails of the animals pressed down with the aid. of a cuff. When the pressure of the pressing cuff attached to a mercury manometer decreased just under the systolic pressure, the sensing head of the measuring apparatus (VP 101 microphone adapted for this purpose and placed on the tails of the rats) signalled the appearence of arterial pulsation both in acustical and visual way (oscilloscope). The systolic blood pressure was determined by observing simultaneously the manometer and the out-signal. When administering the raoemic compound intraperitoneally in doses of 10 and. […] The characteristics of the hypotensive effect of reserpine used as control are substantially the same as those of the racemic compound; hypotension of approximately the same intensity and duration can be achieved by administering 2,5 mg/kg of reserpine and 20 mg/kg of the racemic compound, respectively.\nThe optically active enantiomers were administered in intraperitoneal doses of 20 mg/kg to male rats weighing 300 and having hypertension. […]"}, "[2]": {"conditions": "10 mg/kg i.p., n 5, control 115 ± 2"}, "[3]": {"conditions": "20 mg/kg i.p., n 5, control 116 ± 2"}, "[4]": {"conditions": "intraperitoneally 10 and 20 mg/kg"}, "[5]": {"conditions": "2,5 mg/kg i.p., n 5, control 117 ± 2"}, "[6]": {"conditions": "5,0 mg/kg i.p., n 5, control 118 ± 2"}},
  "data": [
    {"compound": "COC(=O)[C@H]1C(=O)[C@@H](OC(=O)c2cc(OC)c(OC)c(OC)c2)C[C@@H]2CN3CCc4cc5c(cc4[C@H]3C[C@@H]21)OCO5", "note": "(racemic) [SC-T 40, Racemic methyl-7,8-methylened.ioxy-15-(3,4,5--trimethoxy-benzoyloxy)-14-oxo-epiallo--berbane-13-carboxylate]", "values": [
      {"measurement": "Time for which mice stayed on the rotating rod (average, n = 10)", "setting": "CFLP strain female mice", "value": "102 ± 12,0"},
      {"measurement": "effect on coordination", "setting": "CFLP strain female mice", "value": "did not exhibit any effect on coordination"},
      {"measurement": "Blood pressure change related to the starting (control) value, 3rd hour", "setting": "CFY strain male rats; 10 mg/kg i.p.", "value": "-4,23%"},
      {"measurement": "Blood pressure (Hgmm; x̄ ± S.E.) 3rd hour", "setting": "CFY strain male rats; [2]", "value": "110 ± 2", "unit": "Hgmm"},
      {"measurement": "Blood pressure change related to the starting (control) value, 6th hour", "setting": "CFY strain male rats; 10 mg/kg i.p.", "value": "-13,88%"},
      {"measurement": "Blood pressure (Hgmm; x̄ ± S.E.) 6th hour", "setting": "CFY strain male rats; [2]", "value": "99 ± 3", "unit": "Hgmm"},
      {"measurement": "Blood pressure change related to the starting (control) value, 12th hour", "setting": "CFY strain male rats; 10 mg/kg i.p.", "value": "-12,14%"},
      {"measurement": "Blood pressure (Hgmm; x̄ ± S.E.) 12th hour", "setting": "CFY strain male rats; [2]", "value": "101 ± 2", "unit": "Hgmm"},
      {"measurement": "Blood pressure change related to the starting (control) value, 18th hour", "setting": "CFY strain male rats; 10 mg/kg i.p.", "value": "-9,53%"},
      {"measurement": "Blood pressure (Hgmm; x̄ ± S.E.) 18th hour", "setting": "CFY strain male rats; [2]", "value": "104 ± 2", "unit": "Hgmm"},
      {"measurement": "Blood pressure change related to the starting (control) value, 24th hour", "setting": "CFY strain male rats; 10 mg/kg i.p.", "value": "-9,64%"},
      {"measurement": "Blood pressure (Hgmm; x̄ ± S.E.) 24th hour", "setting": "CFY strain male rats; [2]", "value": "104 ± 4", "unit": "Hgmm"},
      {"measurement": "Blood pressure change related to the starting (control) value, 48th hour", "setting": "CFY strain male rats; 10 mg/kg i.p.", "value": "-9,53%"},
      {"measurement": "Blood pressure (Hgmm; x̄ ± S.E.) 48th hour", "setting": "CFY strain male rats; [2]", "value": "104 ± 2", "unit": "Hgmm"},
      {"measurement": "Blood pressure change related to the starting (control) value, 3rd hour", "setting": "CFY strain male rats; 20 mg/kg i.p.", "value": "-7,98%"},
      {"measurement": "Blood pressure (Hgmm; x̄ ± S.E.) 3rd hour", "setting": "CFY strain male rats; [3]", "value": "107 ± 2", "unit": "Hgmm"},
      {"measurement": "Blood pressure change related to the starting (control) value, 6th hour", "setting": "CFY strain male rats; 20 mg/kg i.p.", "value": "-19,53%"},
      {"measurement": "Blood pressure (Hgmm; x̄ ± S.E.) 6th hour", "setting": "CFY strain male rats; [3]", "value": "93 ± 6", "unit": "Hgmm"},
      {"measurement": "Blood pressure change related to the starting (control) value, 12th hour", "setting": "CFY strain male rats; 20 mg/kg i.p.", "value": "-17,11%"},
      {"measurement": "Blood pressure (Hgmm; x̄ ± S.E.) 12th hour", "setting": "CFY strain male rats; [3]", "value": "96 ± 2", "unit": "Hgmm"},
      {"measurement": "Blood pressure change related to the starting (control) value, 18th hour", "setting": "CFY strain male rats; 20 mg/kg i.p.", "value": "-12,76%"},
      {"measurement": "Blood pressure (Hgmm; x̄ ± S.E.) 18th hour", "setting": "CFY strain male rats; [3]", "value": "101 ± 3", "unit": "Hgmm"},
      {"measurement": "Blood pressure change related to the starting (control) value, 24th hour", "setting": "CFY strain male rats; 20 mg/kg i.p.", "value": "-9,42%"},
      {"measurement": "Blood pressure (Hgmm; x̄ ± S.E.) 24th hour", "setting": "CFY strain male rats; [3]", "value": "105 ± 2", "unit": "Hgmm"},
      {"measurement": "Blood pressure change related to the starting (control) value, 48th hour", "setting": "CFY strain male rats; 20 mg/kg i.p.", "value": "-4,23%"},
      {"measurement": "Blood pressure (Hgmm; x̄ ± S.E.) 48th hour", "setting": "CFY strain male rats; [3]", "value": "111 ± 1", "unit": "Hgmm"},
      {"measurement": "dose achieving hypotension of approximately the same intensity and duration", "setting": "CFY strain male rats", "value": 20, "unit": "mg/kg"},
      {"measurement": "duration of the hypotensive effect", "setting": "CFY strain male rats; [4]", "value": "still detected in the 48th hour"},
      {"measurement": "time at which the hypotensive effect reached its maximum", "setting": "CFY strain male rats; [4]", "value": "sixth hour"},
      {"measurement": "hypotensive effect", "setting": "CFY strain male rats; intraperitoneally 10 and 20 mg/kg, 3-6 hours after the administration", "value": "significant hypotensive effect"}
    ]},
    {"compound": "COC(=O)[C@H]1[C@H]2C[C@@H]3c4[nH]c5cc(OC)ccc5c4CCN3C[C@H]2C[C@@H](OC(=O)c2cc(OC)c(OC)c(OC)c2)[C@@H]1OC", "note": "[RESERPINE, reserpine, reference compound]", "values": [
      {"measurement": "Time for which mice stayed on the rotating rod (average, n = 10)", "setting": "CFLP strain female mice", "value": "9 ± 3,3"},
      {"measurement": "effect on coordination", "setting": "CFLP strain female mice", "value": "roduced coordination to a very significatn extent"},
      {"measurement": "Blood pressure change related to the starting (control) value, 3rd hour", "setting": "CFY strain male rats; 2,5 mg/kg i.p.", "value": "-11,11%"},
      {"measurement": "Blood pressure (Hgmm; x̄ ± S.E.) 3rd hour", "setting": "CFY strain male rats; [5]", "value": "104 ± 2", "unit": "Hgmm"},
      {"measurement": "Blood pressure change related to the starting (control) value, 6th hour", "setting": "CFY strain male rats; 2,5 mg/kg i.p.", "value": "-18,8%"},
      {"measurement": "Blood pressure (Hgmm; x̄ ± S.E.) 6th hour", "setting": "CFY strain male rats; [5]", "value": "95 ± 2", "unit": "Hgmm"},
      {"measurement": "Blood pressure change related to the starting (control) value, 12th hour", "setting": "CFY strain male rats; 2,5 mg/kg i.p.", "value": "-9,4%"},
      {"measurement": "Blood pressure (Hgmm; x̄ ± S.E.) 12th hour", "setting": "CFY strain male rats; [5]", "value": "106 ± 2", "unit": "Hgmm"},
      {"measurement": "Blood pressure change related to the starting (control) value, 18th hour", "setting": "CFY strain male rats; 2,5 mg/kg i.p.", "value": "-12,82%"},
      {"measurement": "Blood pressure (Hgmm; x̄ ± S.E.) 18th hour", "setting": "CFY strain male rats; [5]", "value": "102 ± 1", "unit": "Hgmm"},
      {"measurement": "Blood pressure change related to the starting (control) value, 24th hour", "setting": "CFY strain male rats; 2,5 mg/kg i.p.", "value": "-10,26%"},
      {"measurement": "Blood pressure (Hgmm; x̄ ± S.E.) 24th hour", "setting": "CFY strain male rats; [5]", "value": "105 ± 3", "unit": "Hgmm"},
      {"measurement": "Blood pressure change related to the starting (control) value, 48th hour", "setting": "CFY strain male rats; 2,5 mg/kg i.p.", "value": "-6,48%"},
      {"measurement": "Blood pressure (Hgmm; x̄ ± S.E.) 48th hour", "setting": "CFY strain male rats; [5]", "value": "109 ± 2", "unit": "Hgmm"},
      {"measurement": "Blood pressure change related to the starting (control) value, 3rd hour", "setting": "CFY strain male rats; 5,0 mg/kg i.p.", "value": "-15,25%"},
      {"measurement": "Blood pressure (Hgmm; x̄ ± S.E.) 3rd hour", "setting": "CFY strain male rats; [6]", "value": "100 ± 5", "unit": "Hgmm"},
      {"measurement": "Blood pressure change related to the starting (control) value, 6th hour", "setting": "CFY strain male rats; 5,0 mg/kg i.p.", "value": "-19,49%"},
      {"measurement": "Blood pressure (Hgmm; x̄ ± S.E.) 6th hour", "setting": "CFY strain male rats; [6]", "value": "95 ± 7", "unit": "Hgmm"},
      {"measurement": "Blood pressure change related to the starting (control) value, 12th hour", "setting": "CFY strain male rats; 5,0 mg/kg i.p.", "value": "-13,56%"},
      {"measurement": "Blood pressure (Hgmm; x̄ ± S.E.) 12th hour", "setting": "CFY strain male rats; [6]", "value": "102 ± 1", "unit": "Hgmm"},
      {"measurement": "Blood pressure change related to the starting (control) value, 18th hour", "setting": "CFY strain male rats; 5,0 mg/kg i.p.", "value": "-8,47%"},
      {"measurement": "Blood pressure (Hgmm; x̄ ± S.E.) 18th hour", "setting": "CFY strain male rats; [6]", "value": "108 ± 2", "unit": "Hgmm"},
      {"measurement": "Blood pressure change related to the starting (control) value, 24th hour", "setting": "CFY strain male rats; 5,0 mg/kg i.p.", "value": "-10,17%"},
      {"measurement": "Blood pressure (Hgmm; x̄ ± S.E.) 24th hour", "setting": "CFY strain male rats; [6]", "value": "106 ± 3", "unit": "Hgmm"},
      {"measurement": "Blood pressure change related to the starting (control) value, 48th hour", "setting": "CFY strain male rats; 5,0 mg/kg i.p.", "value": -5.93, "unit": "%"},
      {"measurement": "Blood pressure (Hgmm; x̄ ± S.E.) 48th hour", "setting": "CFY strain male rats; [6]", "value": "111 ± 2", "unit": "Hgmm"},
      {"measurement": "dose achieving hypotension of approximately the same intensity and duration", "setting": "CFY strain male rats", "value": "2,5 mg/kg"}
    ]},
    {"compound": "(+)-Methyl-7,8-methylenedioxy-15-(3,4,5--trimethoxy-benzoyloxy)-l4-oxo-epiallo--berbane-13-carboxylate [[(+), I]]", "values": [
      {"measurement": "blood-pressure decrease (average, n = 6)", "setting": "[1]", "value": "15,6 Hgmm"}
    ]},
    {"compound": "(-)-Methyl-7,8-methylenedioxy-15-(3,4,5--trimethoxy-benzoyloxy)-14-oxo-epiallo--berbane-13-carboxylate [[(-), I]]", "values": [
      {"measurement": "blood-pressure decrease (average, n = 6)", "setting": "[1]", "value": "14,8 Hgmm"}
    ]}
  ]
}
